Test results: patent publication US20210285004A1, “Bidirectional Constitutive Promoter and Uses, and Transfection Methods for B. Microti” (MJKS Research LLC, priority 2020, published 2021)

Assays:
B. microti [1] = experiment: Transient transfection of B. microti with promoter constructs, reporter expression by fluorescence microscopy; assay type: cell-based, Babesia microti; settings: two days after transfection, infected RBC from C57BL/6J mice
Method: A transfection of parasites with a parasite promoter (here: B. microti & SEQ ID NO:1) is performed as follows. A schematic representation of the genomic location of the B. microti promoter of SEQ ID NO:1 (BM-CTQ41297 promoter) is shown in FIG. 1a. As shown in the figure, the promoter is flanked by the two different genes. The episomal constructs may be based on a standard cloning vector such as Bluescript (pBSK (+)) and modified for expression accordingly; the constructs used are shown schematically in FIG. 1b. As a negative control (B), B. microti parasites transfected with a blank vector without reporter gene insert (but with BM-CTQ41297 promoter and 3′UTR, compare SEQ ID NO: 35). […] Electroporation for both genes is performed as follows. […]
After electroporation, the parasites are immediately injected into C57BL/6J mice and after two days of transfection analyzed by fluorescence microscopy as follows: a drop of blood is collected in a 1.5 ml tube containing heparin from the tail of mice infected with transfected parasites. […] The transfected parasites are analyzed by fluorescence microscopy to check if transfected parasites express the reporter gene (here: GFP) using a fluorescence microscope, e.g. Axio Imager M2®, Zeiss®, Dublin, Calif.). The transfected parasites are reporter gene (e.g. here: GFP) positive as confirmed by fluorescence microscopy and shown in FIG. 1c, see C. […]

B. microti [2] = experiment: Promoter strength comparison by reporter gene analysis (RLU, luminometer); assay type: cell-based, Babesia microti; settings: reporter gene construct, FIG. 5
Method: In FIG. 5, the improved strength of the Babesia promoter (here: B. microti or “BM”) compared to a strong constitutive promoter (here: PBANKA DHFR of SEQ ID NO:2) is shown.
The strength of a Babesia-based promoter (for example, without limitation, the BM-CTQ41297 promoter of SEQ ID NO:1) and that of a strong constitutive promoter (here: PBANKA DHFR, SEQ ID NO:2) are determined and compared, representative results are shown in FIG. 5. A promoter (SEQ ID NO:1, from B. microti or “BM”) is compared to PBANKA-DHFR (known to be a strong constitutive promoter), a blank/negative control, and, as a further negative control, human EF1b promoter. The promoter constructs are prepared as described in examples 1 and 4, respectively. Relative Light Units (RLU) are measured by luminometer. […] Similarly the constitutive promoter human EF1b is outperformed by a Babesia-based promoter, including e.g. by the B. microti promoter (as shown in FIG. 5). As determined by reporter gene analysis, the Babesia promoter is at least about 5 to 6 times stronger compared to PBANKA-DHFR (a promoter derived from a rodent malaria parasite Plasmodium berghei with strong constitutive activity commonly used for the expression of reporter genes in various apicomplexan parasites), see results shown in FIG. 5.

Substance: PBANKA-DHFR: Strong constitutive DHFR promoter from Plasmodium berghei, SEQ ID NO:2, 2262 bp [reference compound]
- reporter gene expression (GFP/mCherry fluorescence) (B. microti [1]): expression of GFP
- RLU (Relative Light Unit) values (B. microti [2]): about 60 RLU
